Measurements published in the supplement of paper PMC10307832.

Assays:
[1] = compound: CC1=C(C(=NN1)C)CC2=C(C3=C(S2)N(C(=O)N(C3=O)C)CC(C)C)C(=O)N4C[C@@H](CO4)O + NC(=O)Nc1cc(-c2cccc(F)c2)sc1C(=O)N[C@H]1CCCNC1 [AZD7762] (partner 0.2 µM); assay: relative viability (nuclei count vs DMSO), 5 days (fraction); higher = more cells survive
Method in brief: (§1)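 Lung cancer cell lines in 1536-well plates were dosed by pin tool the day after seeding, either with one drug alone or with a fixed anchor-drug dose plus five library-drug doses (not always all listed) in √10 steps. After 5 days, cells were fixed and their nuclei stained in one step (final 0.05% Triton X-100, 1% formaldehyde, 1 ug/ml Hoechst), then counted on 4× images. Relative viability is the nuclei count in treated wells divided by that in vehicle wells. Values are medians of duplicate plates.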

[2] = compound: CC1=C(C(=NN1)C)CC2=C(C3=C(S2)N(C(=O)N(C3=O)C)CC(C)C)C(=O)N4C[C@@H](CO4)O + CC(=O)Nc1cccc(-n2c(=O)n(C3CC3)c(=O)c3c(Nc4ccc(I)cc4F)n(C)c(=O)c(C)c32)c1 [Trametinib] (partner 0.02 µM); assay: as above
Method in brief: as §1

| Cell Line | relative viability ([1]; first compound 0.0025 µM) | relative viability ([1]; first compound 0.007906 µM) | relative viability ([1]; first compound 0.025 µM) | relative viability ([1]; first compound 0.07906 µM) | relative viability ([1]; first compound 0.25 µM) | relative viability ([2]; first compound 0.0025 µM) | relative viability ([2]; first compound 0.007906 µM) | relative viability ([2]; first compound 0.025 µM) | relative viability ([2]; first compound 0.07906 µM) | relative viability ([2]; first compound 0.25 µM) |
| --- | --- | --- | --- | --- | --- | --- | --- | --- | --- | --- |
| HCC-827 | 0.233 | 0.199 | 0.196 | 0.196 | 0.2 | 0.556 | 0.542 | 0.529 | 0.51 | 0.521 |
| HOP-62 | 0.668 | 0.589 | 0.646 | 0.615 | 0.851 | 0.365 | 0.402 | 0.408 | 0.435 | 0.4 |
| LC-2-ad | 0.892 | 0.83 | 0.84 | 0.856 | 0.851 | 0.928 | 0.874 | 0.922 | 0.896 | 0.927 |
| LCLC-97TM1 | 0.194 | 0.326 | 0.331 | 0.28 | 0.369 | 0.178 | 0.184 | 0.249 | 0.158 | 0.189 |
| LCLC-103H | 0.793 | 0.914 | 0.768 | 0.807 | 0.749 | 0.681 | 0.689 | 0.664 | 0.688 | 0.661 |
| LK-2 | 0.304 | 0.252 | 0.298 | 0.129 | 0.134 | 0.703 | 0.952 | 0.651 | 0.613 | 0.61 |
| LOU-NH91 | 0.817 | 0.817 | 0.75 | 0.863 | 0.742 | 0.802 | 0.756 | 0.812 | 0.826 | 0.792 |
| LU99A | 0.333 | 0.379 | 0.326 | 0.311 | 0.337 | 0.522 | 0.606 | 0.452 | 0.57 | 0.532 |
| LXF-289 | 1.06 | 1.13 | 1.07 | 1.2 | 1.22 | 0.705 | 0.702 | 0.669 | 0.641 | 0.689 |
| NCI-H23 | 0.23 | 0.208 | 0.298 | 0.271 | 0.31 | 0.42 | 0.526 | 0.421 | 0.359 | 0.397 |
| NCI-H322M | 0.655 | 0.57 | 0.71 | 0.573 | 0.662 | 0.503 | 0.577 | 0.471 | 0.527 | 0.433 |
| NCI-H358 | 0.571 | 0.623 | 0.431 | 0.643 | 0.594 | 0.146 | 0.125 | 0.146 | 0.125 | 0.129 |
| NCI-H441 | 1.44 | 1.23 | 1.12 | 1.3 | 1.16 | 0.532 | 0.424 | 0.458 | 0.478 | 0.436 |
| NCI-H460 | 0.726 | 0.65 | 0.562 | 0.551 | 0.596 | 0.158 | 0.149 | 0.186 | 0.136 | 0.206 |
| NCI-H520 |  |  |  |  |  | 0.671 | 0.824 | 0.455 | 0.457 | 0.463 |
| NCI-H522 | 0.836 | 1.05 | 0.546 | 0.565 | 0.624 | 0.77 | 0.768 | 0.701 | 0.606 | 0.657 |
| NCI-H596 | 1.29 | 1.25 | 1.06 | 0.976 | 1.01 | 0.789 | 0.871 | 0.878 | 0.76 | 0.886 |
